Entries after “also recorded” stand apart in the source; their conditions may differ. Like-named read-outs stand apart in the source and are kept apart here.
Legend:
I3R = I3R model: insulin release from rat islets of Langerhans; format: cell-based
Protocol: Islets of Langerhans from male Wistar rats were isolated by collagenase digestion in a medium of bicarbonate-buffered physiological saline solution containing 4 mM D-glucose and 1 mM CaCl2. Islets were selected under a binocular dissecting microscope and were used within two hours of isolation. Islets from humans were isolated from heart-beating cadaver organ donors by collagenase digestion and density gradient centrifugation (Chan, S. L. F., et al., 1997, Brit. J. Pharmacol. 120:926-932).
Incubations were done in 96-well plates. Isolated islets were incubated in 100 μl buffer solution supplemented with bovine serum albumin in humidified air: CO2 (95:5%) at 37° C. in the presence of test agents. To eliminate any potential alpha-2 responses, yohimbine (10 μM), a potent alpha2-adrenergic blocker, was included in all incubations. After 60 min incubation, samples of medium were removed for measurement of insulin release by radioimmunoassay using anti-bovine insulin antiserum. Presence of insulin in the test media were compared to controls; positive differences represented amounts of insulin released. In reversal experiments, diazoxide (e.g., 200 μM) was pre-incubated to block glucose-induced insulin release. In these studies, test reagents were used to determine if they were capable of overcoming diazoxide's inhibitory effects on K+ ATP channels, a well known action of imidazoline secretagogues in islet cells. For example, efaroxan (an inhibitor of I-1 responses in adrenal medullary cells) is a well known I-3 agonist, i.e., it stimulates (at 100 μM) release of insulin and overcomes diazoxide inhibition thus illustrating again the dictomy between I1 and I3 receptor subtypes.
I3R model: Insulin release from pancreas (Eglen, R. M., Hudson, A. L., Kendall, D. A., Nutt, D. J., Morgan, N. G., Wilson, V. G. & Dillon, M. P. (1998) TIPS 19, 381-390; Chan, S. L. F. (1998) Gen. Pharmacol. 31, 525-529; Morgan, N. G. (1999) Exp. Opin. Invest. Drugs 8, 575-584). Islets of Langerhans from male Wistar rats or human pancreata were isolated by collagenase digestion. Hand-picked islets were incubated in NaHCO3-buffered saline containing 1 mM CaCl2, 1 mg/ml BSA and test reagents. After incubation, insulin levels in supernatants were analyzed by RIA. The I3-blocker, KU-14R, served to verify I3R function.

β-TC3 cells = experiment: Insulin release from insulinoma cells in culture; format: cell-based
SH rats = experiment: Mean arterial pressure and heart rate after microinjection into the RVLM of rats; format: in vivo, rat; conditions: SH rats
Protocol: Effects of ribotide on mean arterial pressure (MAP) and heart rate (HR). Bilateral I-4-AA-RP microinjections (60 nl, 100 nmol) into the RVLM of SH rats were performed (Emsberger, P. & Haxhiu, M. A. (1997) Am. J. Physiol. 273, R1572-R1579) after the sympatho-excitatory area was confirmed by showing glutamate-induced MAP elevation ≧30 mm Hg. MAP and HR values were measured every 5 min. After each experiment, the injection site was marked by infusion of rhodamine microspheres. Changes were assessed relative to baseline values by two-way repeated measures ANOVA and Dunnett's test. A second group of SH rats (injection controls) received vehicle injections to control for injection effects and for volume artifacts due to multiple injections. Vehicle contained 2 nmol rilmenidine, a sub-threshold dose, far below that known to cause any detectable effect (Gomez, R. E., Emsberger, P., Feinland, G. & Reis, D. J. (1991) Eur. J. Pharmacol. 195, 181-191). In a follow-up study, SH rats (N=6) were given I-4-AA-RP then moxonidine. When used alone, it reduces MAP to normotensive levels (Emsberger, P., Elliott, H. L., Weimann, H.-J., Raap, A., Haxhiu, M. A., Hofferber, E., Low-Kroger, A., Reid, J. L. & Mest, H. J. (1993) Cardiovas. Drug Rev. 11, 411-431).

Structure (SMILES): O=C(O)Cc1cn(C2OC(COP(=O)(O)O)C(O)C2O)cn1 [IAA-RP, 1-(β-D-ribofuranosyl)-imidazole-4-acetic acid 5′ phosphate]
- reversal of the inhibitory action of diazoxide on glucose-induced insulin release (I3R): overcame inhibitory effects of the KATP-channel agonist, diazoxide
- reversal of the inhibitory action of diazoxide on glucose-induced insulin release (I3R; listed as tele-linked IAA-RP): able to reverse the inhibitory action of diazoxide
- stimulation of insulin release (in words) (I3R; rat islets): potent stimulants of insulin release; also recorded: increased insulin secretion from islets; also recorded: far more potent than efaroxan
- EC50 (I3R; rat islets, glucose 20 mM and diazoxide 200 μM): 30 to 50 nM
- stimulation of insulin release (β-TC3 cells): capable of stimulating insulin release
- rise of MAP over baseline (SH rats; 100 nmol bilateral microinjection into RVLM): ~25 mm Hg
- change of heart rate (HR) (SH rats; 100 nmol into RVLM): no significant changes
- MAP elevation above baseline (SH rats; after six 100 nmol doses): 20.4±5.6%

Reference: patent US7385039B2, “Methods and compositions for regulating imidazoline receptors” (priority 1998, dated 2008)
